Assay results from ChEMBL document CHEMBL3352564, “Synthesis, Structure, and SAR of Tetrahydropyran-Based LpxC Inhibitors” (ACS Med Chem Lett, 2014).
Values after ≈ are worked out from the molar mass of the structure shown.

Experiments:
[1] = tested on: Pseudomonas aeruginosa; assay: Antimicrobial activity against Pseudomonas aeruginosa PAO1 ARC545 by CLSI dilution method; format: functional
[2] = tested on: Pseudomonas aeruginosa; assay: Antimicrobial activity against MexABCDXY-deficient Pseudomonas aeruginosa PAO1 ARC546 by CLSI dilution method; format: functional
[3] = tested on: Escherichia coli; assay: Antimicrobial activity against Escherichia coli ARC523 W3110 harboring mutant by CLSI dilution method; format: functional
[4] = target: 72 kDa type IV collagenase (Homo sapiens) (UniProt P08253); assay: Inhibition of MMP2 (unknown origin) at 10 uM
Sequence of 72 kDa type IV collagenase (Homo sapiens) (P08253 110-660 limits assumed): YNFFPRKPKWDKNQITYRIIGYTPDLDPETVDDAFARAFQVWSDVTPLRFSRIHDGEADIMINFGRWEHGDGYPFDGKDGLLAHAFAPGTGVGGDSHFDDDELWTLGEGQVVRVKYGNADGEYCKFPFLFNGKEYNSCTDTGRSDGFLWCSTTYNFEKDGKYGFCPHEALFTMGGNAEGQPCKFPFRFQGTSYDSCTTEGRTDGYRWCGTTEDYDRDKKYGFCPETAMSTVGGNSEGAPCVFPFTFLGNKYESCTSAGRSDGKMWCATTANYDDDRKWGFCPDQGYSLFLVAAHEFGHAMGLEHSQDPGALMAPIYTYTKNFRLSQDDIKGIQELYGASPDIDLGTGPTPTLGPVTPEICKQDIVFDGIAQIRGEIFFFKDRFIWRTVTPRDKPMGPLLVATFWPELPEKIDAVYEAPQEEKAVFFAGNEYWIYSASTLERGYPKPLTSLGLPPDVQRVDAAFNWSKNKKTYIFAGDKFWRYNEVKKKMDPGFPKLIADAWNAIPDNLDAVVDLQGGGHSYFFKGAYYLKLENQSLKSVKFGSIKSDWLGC

[5] = target: T1, UDP-3-O-acyl-N-acetylglucosamine deacetylase (Pseudomonas aeruginosa (strain ATCC 15692 / PAO1 / 1C / PRS 101 / LMG12228), UniProt P47205); assay: Inhibition of Pseudomonas aeruginosa LpxC using UDP-3-O-(R-3-hydroxydecanoyl)-N-acetylglucosamine as substrate preincubated for 20 mins before substrate addition by LC/MS/MS analysis
T1 sequence (P47205 whole entry): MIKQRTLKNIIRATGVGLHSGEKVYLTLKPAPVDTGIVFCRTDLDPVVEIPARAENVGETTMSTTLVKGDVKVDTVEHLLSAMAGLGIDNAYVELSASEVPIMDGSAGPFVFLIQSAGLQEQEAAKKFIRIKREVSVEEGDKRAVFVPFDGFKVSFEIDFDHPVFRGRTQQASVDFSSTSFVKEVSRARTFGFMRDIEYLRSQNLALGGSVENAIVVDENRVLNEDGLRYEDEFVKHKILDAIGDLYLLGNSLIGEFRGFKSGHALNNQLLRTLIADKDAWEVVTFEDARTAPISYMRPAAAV

[6] = target: Collagenase 3 (Homo sapiens) (UniProt P45452); assay: Inhibition of MMP13 (unknown origin) at 10 uM
[7] = tested on: Escherichia coli; assay: Antimicrobial activity against TolC-deficient Escherichia coli ARC524 W3110 harboring mutant by CLSI dilution method; format: functional
[8] = target: Collagenase 3 (Homo sapiens) (UniProt P45452); assay: Inhibition of MMP13 (unknown origin) at 15 uM
[9] = target: 72 kDa type IV collagenase (Homo sapiens) (UniProt P08253); assay: Inhibition of MMP2 (unknown origin) at 30 uM
[10] = target: Collagenase 3 (Homo sapiens) (UniProt P45452); assay: Inhibition of MMP13 (unknown origin) at 30 uM

For O=C(NO)C1(COc2ccc(C#Cc3ccc(CN4CCN(CCn5ccnc5)CC4)cc3)cc2)CCOCC1, the MIC [1] was 50 µM (≈ 27.2 µg/mL), the MIC [2] was 0.78 µM (≈ 0.424 µg/mL) and the MIC [3] was 6.25 µM (≈ 3.4 µg/mL). It also gave an inhibition [4] of 93%, an IC50 [5] of 2 nM and an inhibition [6] of 80%. The MIC [7] was 0.78 µM (≈ 0.424 µg/mL).

Work on CN(C)CC1CN(Cc2ccc(C#Cc3ccc(OCC4(C(=O)NO)CCOCC4)cc3)cc2)CCO1 (stereo not given) yielded an MIC [1] of 100 µM (≈ 50.8 µg/mL), an MIC [2] of 3.13 µM (≈ 1.59 µg/mL) and an MIC [3] of 200 µM (≈ 102 µg/mL). For the same compound, the IC50 [5] was 5.8 nM and the MIC [7] was 6.25 µM (≈ 3.17 µg/mL).

Work on O=C(NO)C1(COc2ccc(Oc3ccccc3)cc2)CCOCC1 yielded an MIC [1] of over 200 µM, an MIC [2] of 25 µM (≈ 8.58 µg/mL) and an MIC [3] of over 200 µM. It also gave an IC50 [5] of 92 nM and an MIC [7] of over 200 µM.

Work on O=C(NO)C1(COc2ccc(C#Cc3ccc(CN4CCOCC4)cc3)cc2)CCC(O)CC1 (stereo not given) yielded an MIC [1] of over 200 µM, an MIC [2] of 25 µM (≈ 11.6 µg/mL) and an MIC [3] of over 200 µM. The IC50 [5] was 82.5 nM and the MIC [7] was 25 µM (≈ 11.6 µg/mL).

CC(C)N1CCN(Cc2ccc(C#Cc3ccc(OCC4(C(=O)NO)CCOCC4)cc3)cc2)CC1 gave an MIC [1] of 100 µM (≈ 49.2 µg/mL), an MIC [2] of 3.13 µM (≈ 1.54 µg/mL) and an MIC [3] of 100 µM (≈ 49.2 µg/mL). For the same compound, the IC50 [5] was 7.5 nM and the MIC [7] was 12.5 µM (≈ 6.15 µg/mL).

With O=C(NO)C1(COc2ccc(C#CC#Cc3ccccc3)cc2)CCOCC1 the MIC [1] was over 200 µM, the MIC [2] was over 200 µM and the MIC [3] was 200 µM (≈ 75.1 µg/mL). For the same compound, the IC50 [5] was 33 nM and the MIC [7] was 50 µM (≈ 18.8 µg/mL).

With O=C(NO)C1(CSc2ccc(Oc3ccc(Cl)cc3)cc2)CCOCC1 the MIC [1] was 50 µM (≈ 19.7 µg/mL), the MIC [2] was 6.25 µM (≈ 2.46 µg/mL) and the inhibition [8] was 99%. The MIC [3] was over 200 µM, the IC50 [5] was 7.4 nM and the MIC [7] was 50 µM (≈ 19.7 µg/mL).

For O=C(CN1CCN(Cc2ccc(C#Cc3ccc(OCC4(C(=O)NO)CCOCC4)cc3)cc2)CC1)N1CCOCC1, the MIC [1] was over 200 µM, the MIC [2] was 12.5 µM (≈ 7.21 µg/mL) and the MIC [3] was over 200 µM. For the same compound, the IC50 [5] was 1.7 nM and the MIC [7] was 25 µM (≈ 14.4 µg/mL).

Work on C[C@@H]1CN(Cc2ccc(C#Cc3ccc(OCC4(C(=O)NO)CCOCC4)cc3)cc2)C[C@H](C)O1 yielded an MIC [1] of over 200 µM, an MIC [2] of 3.13 µM (≈ 1.5 µg/mL) and an MIC [3] of 12.5 µM (≈ 5.98 µg/mL). It also gave an inhibition [4] of 92%, an IC50 [5] of 2.6 nM and an inhibition [6] of 75%. For the same compound, the MIC [7] was 0.39 µM (≈ 0.187 µg/mL).

With O=C(NO)C1(C[S+]([O-])c2ccc(C#Cc3ccc(CN4CCOCC4)cc3)cc2)CCOCC1 (racemic) the MIC [1] was 25 µM (≈ 12.1 µg/mL), the MIC [2] was under 0.2 µM and the MIC [3] was 1.56 µM (≈ 0.753 µg/mL). For the same compound, the inhibition [4] was 97%, the IC50 [5] was 3.1 nM and the inhibition [6] was 96%. The MIC [7] was under 0.2 µM.

With O=C(NO)C1(CSc2ccc(C#Cc3ccc(CN4CCOCC4)cc3)cc2)CCOCC1 the MIC [1] was 25 µM (≈ 11.7 µg/mL), the MIC [2] was 0.39 µM (≈ 0.182 µg/mL) and the MIC [3] was 3.13 µM (≈ 1.46 µg/mL). It also gave an IC50 [5] of 0.2 nM and an MIC [7] of under 0.2 µM.

CN1CCN(Cc2ccc(C#Cc3ccc(OCC4(C(=O)NO)CCOCC4)cc3)cc2)CC1 showed an MIC [1] of 100 µM (≈ 46.4 µg/mL), an MIC [2] of 1.56 µM (≈ 0.723 µg/mL) and an MIC [3] of 50 µM (≈ 23.2 µg/mL). It also gave an IC50 [5] of 6.1 nM and an MIC [7] of 3.13 µM (≈ 1.45 µg/mL).

Compound COC1CCC(COc2ccc(C#Cc3ccc(CN4CCOCC4)cc3)cc2)(C(=O)NO)CC1 (stereo not given) has an MIC [1] of over 200 µM, an MIC [2] of 3.13 µM (≈ 1.5 µg/mL) and an MIC [3] of 100 µM (≈ 47.9 µg/mL). It also gave an IC50 [5] of 8.6 nM and an MIC [7] of 6.25 µM (≈ 2.99 µg/mL).

Compound C[C@@H](O)[C@H](NC(=O)c1ccc(C#Cc2ccc(CN3CCOCC3)cc2)cc1)C(=O)NO has an MIC [1] of 1.56 µM (≈ 0.682 µg/mL), an MIC [2] of under 0.2 µM and an inhibition [9] of 12%. For the same compound, the inhibition [10] was 30%, the MIC [3] was under 0.2 µM and the MIC [7] was under 0.2 µM.

O=C(NO)C1(COc2ccc(C#Cc3ccc(CN4CCOCC4)cc3)cc2)CCOCC1 was tested, and the MIC [1] was 100 µM (≈ 45.1 µg/mL), the MIC [2] was 1.56 µM (≈ 0.703 µg/mL) and the MIC [3] was 12.5 µM (≈ 5.63 µg/mL). For the same compound, the inhibition [4] was 94%, the IC50 [5] was 4.4 nM and the inhibition [6] was 82%. The MIC [7] was 1.56 µM (≈ 0.703 µg/mL).

For CC(C)(O)C#CC#Cc1ccc(OCC2(C(=O)NO)CCOCC2)cc1, the MIC [1] was over 200 µM, the MIC [2] was 25 µM (≈ 8.94 µg/mL) and the MIC [3] was 200 µM (≈ 71.5 µg/mL). For the same compound, the IC50 [5] was 139 nM and the MIC [7] was 6.25 µM (≈ 2.23 µg/mL).

O=C(NO)C1(COc2ccc(OCc3ccccc3)cc2)CCOCC1 gave an MIC [1] of 200 µM (≈ 71.5 µg/mL), an MIC [2] of 6.25 µM (≈ 2.23 µg/mL) and an MIC [3] of over 200 µM. For the same compound, the IC50 [5] was 14 nM and the MIC [7] was 200 µM (≈ 71.5 µg/mL).

With O=C(NO)C1(COc2ccc(-c3ccccc3)cc2)CCOCC1 the MIC [1] was 100 µM (≈ 32.7 µg/mL), the MIC [2] was 6.25 µM (≈ 2.05 µg/mL) and the MIC [3] was over 200 µM. The IC50 [5] was 8.7 nM and the MIC [7] was over 200 µM.

COc1ccc(CNCc2ccc(C#Cc3ccc(OCC4(C(=O)NO)CCOCC4)cc3)cc2)cc1 showed an MIC [1] of 100 µM (≈ 50.1 µg/mL), an MIC [2] of 6.25 µM (≈ 3.13 µg/mL) and an MIC [3] of 50 µM (≈ 25 µg/mL). For the same compound, the IC50 [5] was 10 nM and the MIC [7] was 12.5 µM (≈ 6.26 µg/mL).

With O=C(NO)C1(COc2ccc(C#Cc3ccc(CN4CCN(CCN5CCOCC5)CC4)cc3)cc2)CCOCC1 the MIC [1] was 50 µM (≈ 28.1 µg/mL), the MIC [2] was 0.78 µM (≈ 0.439 µg/mL) and the MIC [3] was 25 µM (≈ 14.1 µg/mL). It also gave an IC50 [5] of 2.7 nM and an MIC [7] of 1.56 µM (≈ 0.878 µg/mL).

Compound CC(=O)N1CCN(Cc2ccc(C#Cc3ccc(OCC4(C(=O)NO)CCOCC4)cc3)cc2)CC1 has an MIC [1] of 50 µM (≈ 24.6 µg/mL), an MIC [2] of 0.78 µM (≈ 0.383 µg/mL) and an MIC [3] of 25 µM (≈ 12.3 µg/mL). For the same compound, the IC50 [5] was 3 nM and the MIC [7] was 0.39 µM (≈ 0.192 µg/mL).
